In ChEMBL document CHEMBL3988442, “University of Dundee, Small-Polar-MMV Screening Library” (2021):

molecular target: ClpP1P2 (Mycobacterium tuberculosis (strain ATCC 25618 / H37Rv), UniProt P9WPC3+P9WPC5); assay: in vitro assay to detect presence of AMC directly proportional to the activity of ClpP1P2. GHDDI collaboration.; assay type: functional
Sequence (P9WPC5 whole entry): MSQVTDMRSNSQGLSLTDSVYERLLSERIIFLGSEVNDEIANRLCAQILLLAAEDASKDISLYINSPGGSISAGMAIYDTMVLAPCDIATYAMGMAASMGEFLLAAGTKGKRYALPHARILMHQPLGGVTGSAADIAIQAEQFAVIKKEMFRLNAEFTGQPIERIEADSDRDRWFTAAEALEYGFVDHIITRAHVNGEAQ
Sequence (P9WPC3 whole entry): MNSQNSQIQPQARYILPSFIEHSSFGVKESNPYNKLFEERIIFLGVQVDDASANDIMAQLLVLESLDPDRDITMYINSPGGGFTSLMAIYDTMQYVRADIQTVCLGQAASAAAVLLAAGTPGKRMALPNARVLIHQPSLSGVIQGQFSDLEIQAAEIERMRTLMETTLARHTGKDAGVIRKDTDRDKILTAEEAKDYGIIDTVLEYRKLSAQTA

| Structure (SMILES) | IC50 |
| --- | --- |
| CCN1CCc2c(sc3c2C(=O)NC(/C=C\c2ccccc2)N3)C1 (stereo not drawn) | > 100 µM |
| COCCNC(=O)c1cc(-c2cc[nH]n2)n2ccccc12 | > 100 µM |
| Cc1ncc2c(n1)CN(CC(=O)Nc1ccc(Cl)cn1)CC2 | > 100 µM |
| CC(Nc1ncnc2c1NC(=O)CN2)c1ccccn1 (stereo not drawn) | > 100 µM |
| O=C(NCCOC1CCCCC1)c1ccc(-c2ccco2)[nH]c1=O | > 100 µM |
| Cc1cc(C)n(CCNCc2cc(-c3ccccc3)c[nH]c2=O)n1 | > 100 µM |
| Cc1cc(C)n(-c2cncc(NCCNC(=O)C(C)(C)C)n2)n1 | > 100 µM |
| Cn1cc(CCC(=O)N2CCCN(c3ncccc3C#N)CC2)cn1 | > 100 µM |
| CN1CCc2c(sc3c2C(=O)NC(/C=C/c2ccccc2)N3)C1 (stereo not drawn) | > 100 µM |
| O=C(c1cncc(NCC2COc3ccccc3C2)n1)N1CCCC1 (stereo not drawn) | > 100 µM |
| Cc1nc(N2CCCC2)ccc1NCc1ccccn1 | > 100 µM |
| CCc1nccn1-c1cccc(C2CCCN2)n1 (stereo not drawn) | > 100 µM |
| CN(C)CCC1CN(C(=O)c2cccc3c2OCC3)CCO1 (stereo not drawn) | > 100 µM |
| Cc1noc(C2CCN(C(=O)CCc3nccs3)CC2)n1 | > 100 µM |
| CC1CN(C(=O)CN(Cc2ccco2)Cc2cccs2)CCO1 (stereo not drawn) | > 100 µM |
| CCC[C@H]1CN(c2cncc(C(=O)N3CCCCC3)n2)C[C@@H]1N(C)C | > 100 µM |
| N#Cc1cccnc1N1CCCN(C(=O)CCn2cccn2)CC1 | > 100 µM |
| Cc1c(-c2cccs2)nn2c(O)c3c(nc12)CN(C(=O)C1CC1)C3 | > 100 µM |
| CCC(=O)N1CCCN(c2cncc(-n3nc(C)cc3C)n2)CC1 | > 100 µM |
| O=C(c1cnn2c(-c3ccco3)ccnc12)N1CCCCCC1 | > 100 µM |
| COc1ncccc1CNC(=O)c1cc(C)on1 | > 100 µM |
| CN(C)C(=O)c1nc(-c2ccc(S(C)(=O)=O)cc2)c2ccccn12 | > 100 µM |
| Cc1nc(CN2CCOC(Cn3cccn3)C2)nc2ccccc12 (stereo not drawn) | > 100 µM |
| CC(=O)N1CCCCCC1C1CCN(c2ncccc2C#N)CC1 (stereo not drawn) | > 100 µM |
| CN(C)c1ncc(-c2cc(C(=O)NC(C)(C)CO)n(CC3CC3)c2)cn1 | > 100 µM |

| Structure (SMILES) | IC50 |
| --- | --- |
| CC(C)n1c2ccccc2c2c1cc(C(=O)NC1CC1)n2C(=O)N(C)C | > 100 µM |
| CN1CCC(NC(=O)c2cc(Br)cc(Cl)c2O)C1=O (stereo not drawn) | > 100 µM |
| COCc1cccc(CNCc2c(C)nn(C)c2N2CCOCC2)c1 | > 100 µM |
| Cc1nc(CN2CCCN(C(=O)c3sccc3C#N)CC2)cs1 | > 100 µM |
| O=C(O)C1(O)CCN(c2ccc3cccc(Cl)c3n2)CC1 | > 100 µM |
| O=C(NCCC(=O)N1CCCc2ccccc21)c1c(F)cccc1F | > 100 µM |
| COc1ccc2cc(CN(C)CCc3cn[nH]c3)c(=O)[nH]c2c1 | > 100 µM |
| Cc1ccccc1-c1noc(CN2CCc3cncnc3C2)n1 | > 100 µM |
| CNc1cncc(C2CCCN2C(=O)CCn2ccnc2)n1 (stereo not drawn) | > 100 µM |
| CCOC(=O)C1(Cc2cccc(OC)c2)CCN(Cc2ncc[nH]2)CC1 | > 100 µM |
| c1cncc(CN2CCC(c3ccc4c(c3)OCO4)CC2)c1 | > 100 µM |
| Cn1ccc2c(-c3cc(N4CCOCC4)ncn3)ccnc21 | > 100 µM |
| CNC(=O)C1CCCN1c1nc(C)c2ccccc2n1 (stereo not drawn) | > 100 µM |
| O=C1CNc2ncnc(NCc3cccs3)c2N1 | > 100 µM |
| c1ccc(CCCN2CCOC(Cn3cccn3)C2)cc1 (stereo not drawn) | > 100 µM |
| O=C(N1CCCC(n2cncn2)C1)C1(c2ccc(Cl)cc2)CCC1 (stereo not drawn) | > 100 µM |
| CCn1nc2c(cc1=O)CN(Cc1nc(C)c(C)o1)CC2 | > 100 µM |
| Cc1cnn(CC2CCCN2C(=O)c2nccnc2N)c1 (stereo not drawn) | > 100 µM |
| Cc1c[nH]nc1C1CCCN1Cc1ncc[nH]1 (stereo not drawn) | > 100 µM |
| N#Cc1cccc(OCCN2CCNC(=O)C2c2cccs2)c1 (stereo not drawn) | > 100 µM |
| OCCNc1nc(Nc2ccccc2)c2nccnc2n1 | > 100 µM |
| CN(C)c1ncc(C2Nc3ccccc3C3=NCCCN32)cn1 (stereo not drawn) | > 100 µM |
| Cn1c(CN2CCCC(Cn3cncn3)C2)nc2ccccc21 (stereo not drawn) | > 100 µM |
| CC(C)n1cnc(-c2nc(C(=O)N3CCCC3)c3ccccn23)c1 | > 100 µM |
| COCCn1cnc(-c2cc(C(=O)NC(C)C)c3ccccn23)c1 | > 100 µM |

| Structure (SMILES) | IC50 |
| --- | --- |
| COCCCN1C(=O)CC[C@H]2CN(c3cnc4ccccc4n3)CC[C@H]21 | > 100 µM |
| COCCN1CCc2cc(C(=O)NC(C)C)c(NCC(C)C)nc2CC1 | > 100 µM |
| Cc1nc(-c2nc(C(=O)N3CCOCC3)c3ccccn23)cn1C(C)C | > 100 µM |
| CCOc1ccc2[nH]c(=O)c(CN3CCN(S(N)(=O)=O)CC3)cc2c1 | > 100 µM |
| CN(C)c1cc(C(=O)N2CCN(c3cc(C#N)ccn3)CC2)ccn1 | > 100 µM |
| COCCN1CCC(CNc2cnc3ccccc3n2)CC1 | > 100 µM |
| CNc1cc(C(=O)NCCC2=CSC3=NCCCN23)ccn1 | > 100 µM |
| COc1ncc(NCc2ccsc2)cc1C(N)=O | > 100 µM |
| Cc1n[nH]c(C)c1-c1cc(-c2cc[nH]c2)nc(N)c1C#N | > 100 µM |
| CC(c1ccco1)N(C)Cc1cc2cc3c(cc2[nH]c1=O)OCO3 (stereo not drawn) | > 100 µM |
| COc1ccc2c(c1)C(=O)N(C)C1(CCN(CC3CC3)CC1)N2 | > 100 µM |
| CCOc1ccccc1CC(=O)N1C[C@@H](C(=O)O)[C@H](c2ccncc2)C1 | > 100 µM |
| CN(C)c1cc(CNC(=O)Nc2ccc(N3CCCC3)nc2)ccn1 | > 100 µM |
| CCCn1[nH]cc/c1=N\C(=O)CN1CCc2c(nc(C3CC3)n2C)C1 | > 100 µM |
| Cn1cc(Cl)cc1C(=O)N1CCCN(Cc2ccccc2)CC1 | > 100 µM |
| CNC(=O)c1cc2c(nc1NCC(C)C)CCN(CCOC)CC2 | > 100 µM |
| O=C(c1nc(=O)[nH]c2ccccc12)N1CCCC2(CCNC2)C1 (stereo not drawn) | > 100 µM |
| CC(C)c1nnc2n1CCN(C(=O)Cc1csc(C(C)(C)C)n1)C2 | > 100 µM |
| CC1Cn2c(nc3c2c(=O)[nH]c(=O)n3C)O1 (stereo not drawn) | > 100 µM |
| CC(=O)Nc1ccc2nc(CN(C)Cc3noc(C)n3)ccc2c1 | > 100 µM |
| Cc1noc2ncc(C(=O)NCC3CCS(=O)(=O)C3)cc12 (stereo not drawn) | > 100 µM |
| CCOc1cc(/C=C/c2ncc(C(=O)O)s2)cc(Br)c1OC | > 100 µM |
| CCCNC(=O)c1cc(-c2ccn(C(C)C)n2)n2ccccc12 | > 100 µM |
| CC(C)Oc1ccc(C(=O)N2CCC(Nc3cccnn3)CC2)cn1 | > 100 µM |
| Cc1cc(C)n(CCCNc2ncnc3c2NC(=O)CN3)n1 | > 100 µM |

| Structure (SMILES) | IC50 |
| --- | --- |
| COc1cccc(-c2cc(NCCO)nc3[nH]ccc23)n1 | > 100 µM |
| CCN(CC)c1ccc(NS(=O)(=O)c2cnn(C(C)C)c2)cn1 | > 100 µM |
| COc1cccc(-n2nnc(C(=O)N3CCN(C)CC3C)c2C)c1 (stereo not drawn) | > 100 µM |
| CCc1ncc2c(n1)CN(CC(=O)Nc1nncs1)CC2 | > 100 µM |
| CC(C)(C)c1ccc(OCC(=O)O)c(CN2C[C@H]3C[C@H](O)C[C@H]3C2)c1 | > 100 µM |
| CC(C)n1nc2c(cc1=O)CN(Cc1nc3ccccc3o1)CC2 | > 100 µM |
| Cn1c(Cn2ccnc2)nnc1C1CCN(C(=O)c2cccnc2)CC1 | > 100 µM |
| CCS(=O)(=O)N1CCc2cc(C(=O)NC)c(NCC3CC3)nc2CC1 | > 100 µM |
| Cc1ccc(CN2CCC3(C2)C(=O)N(CC2CC2)c2ccccc23)s1 (stereo not drawn) | > 100 µM |
| CN(C)c1cc(C(F)(F)F)cc(-c2ccc(C(=O)O)cc2)n1 | > 100 µM |
| CN(C)C1CCN(c2cc(-c3ccccc3)nc3ccnn23)C1 (stereo not drawn) | > 100 µM |
| CC(=O)N(Cc1ncc(C)o1)C1CCN(Cc2cc(C)on2)C1 (stereo not drawn) | > 100 µM |
| CC(C)[C@H](Nc1cc(-c2ccncc2)nc2ccnn12)C(N)=O | > 100 µM |
| COC(=O)c1cc(OC)ccc1NCC(=O)NCC(=O)N1CCCC1 | > 100 µM |
| c1ccc(Cc2nnc(CN3CCc4cncnc4C3)o2)cc1 | > 100 µM |
| COc1ccc(S(N)(=O)=O)cc1C(=O)N(C)Cc1cc(C)on1 | > 100 µM |
| CCOC(=O)CN(CC(F)(F)F)C(=O)c1nc(C)n2ccccc12 | > 100 µM |
| COc1ccc2nc(O)c(CN(C)Cc3ncc[nH]3)cc2c1 | > 100 µM |
| Cn1cc(CN2CCCCC2c2ccc(-c3cccc(F)c3)nc2)cn1 (stereo not drawn) | > 100 µM |
| Cc1cc(C)c2cc(CNCC3CCCO3)c3nn(C)c(=O)n3c2c1 (stereo not drawn) | > 100 µM |
| CCc1n[nH]c(C2CN(CCCS(C)(=O)=O)CCO2)n1 (stereo not drawn) | > 100 µM |
| COc1ccccc1Cc1cncc(N2CC(C(=O)O)C2)n1 | > 100 µM |
| O=C1NC2(CCN(CC(=O)N3CCOCC3)CC2)Nc2ccccc21 | > 100 µM |
| c1cnnc(N2CCCC(NCc3nnc(-c4ccco4)o3)C2)c1 (stereo not drawn) | > 100 µM |
| Cc1ccnc(NCCCN2CCc3ccccc32)n1 | > 100 µM |

| Structure (SMILES) | IC50 |
| --- | --- |
| CCN(CC(C)C#N)C(=O)CNc1cc(Cl)ccc1C(N)=O (stereo not drawn) | > 100 µM |
| CN(C(=O)CCc1nc(C2CC2)no1)c1cc(C#N)c2ccccc2n1 | > 100 µM |
| CC(=O)N1CCC(CCc2ccnc(NC(=O)c3ccccn3)c2)CC1 | > 100 µM |
| COc1ccc2cc(CN(C)CCN3CCCCC3=O)c(=O)[nH]c2c1 | > 100 µM |
| CC(C)c1nc(CN(C)C2CCN(CCc3ccncc3)C2)no1 (stereo not drawn) | > 100 µM |
| O=C(NCc1ccccn1)[C@H]1COC[C@H]2CN(C3CCCC3)C[C@H]21 | > 100 µM |
| Cc1ccc(S(=O)(=O)N2CCOc3ccccc32)cc1C(N)=O | > 100 µM |
| CN1C(=O)c2cccc(NC(=O)c3ccc4c(c3)OCCO4)c2C1=O | > 100 µM |
| CCN(CC)C(=O)c1ccc(CNc2cncc(-n3cccn3)n2)cc1 | > 100 µM |
| Cc1nnc(C2Cc3ccccc3CN2Cc2c(C)noc2C)o1 (stereo not drawn) | > 100 µM |
| Cc1cc(C)n(-c2ccc3nnc(C)n3n2)n1 | > 100 µM |
| CCNC(=O)c1c2c(N3CCN(C)CC3)ncnc2n2ccccc12 | > 100 µM |
| Cc1nn(CCNc2ncnc3c2NC(=O)CN3)c(C)c1Cl | > 100 µM |
| Cc1cc(C)n(-c2cncc(NCCNC(=O)CC3CCCC3)n2)n1 | > 100 µM |
| c1ncc2c(n1)CN(Cc1nc(-c3ccoc3)no1)CC2 | > 100 µM |
| Cc1cccc(NC(=O)c2ccc(OCc3nnnn3C)cc2)n1 | > 100 µM |
| CC1CCN(C(=O)C2CCN(c3ccc(Cl)cc3C#N)CC2)CC1 | > 100 µM |
| Nc1nccnc1C(=O)NC1CCN(Cc2ccccc2)C1 (stereo not drawn) | > 100 µM |
| Cc1ccc(NC2CCN(C(=O)CCc3ccncc3)CC2)nn1 | > 100 µM |
| NC(=O)C1CCN(c2nc3nccc(-c4cccnc4)c3c(=O)[nH]2)CC1 | > 100 µM |
| CNc1cnc(CC2COCCN(Cc3cccc(C)n3)C2)cn1 (stereo not drawn) | > 100 µM |
| Cc1nc(CN(C)C2CCN(Cc3cccc4c3OCCO4)C2)no1 (stereo not drawn) | > 100 µM |
| CC(C)n1ccc(-c2cc(C(=O)N3CCN(C)CC3)c3ccccn23)n1 | > 100 µM |
